Experimental data as given in patent US12642786B2, “Methods, compositions and kits for treating multiple sclerosis and other disorders” (The Johns Hopkins University, priority 2018, dated 2026).

Key:
[1] = system: corpus callosum, LPC demyelination; assay: Lysolecithin (LPC)-induced demyelination, MBP staining; assay type: in vivo, C57BL/6J mice; settings: 30 μg/kg IP at 3, 5, 7 and 9 dpl, assessed at 10 dpl
Procedure: To evaluate the impact of systemic treatment with bryo-1 on physiologic demyelination in vivo, we conducted a lysolecithin (LPC)-induced demyelination animal study. LPC was stereotactically injected into the corpus callosum of 12-week old C57BL/6J mice. Bryo-1 (30 μg/kg) or vehicle was injected IP at 3, 5, 7, and 9 dpl followed by immunofluorescent assessment of MBP expression at 10 dpl.

[2] = system: neurospheres; assay: Neurospheres, staining for oligodendrocyte marker; assay type: cell-based; settings: 20 nM every other day for 1 week
Excerpt: We examined the effect of bryo-1 on neurospheres, which are neural stem cell-like cells.

[3] = system: EAE (MOG35-55 immunized mice); assay: EAE, treatment initiated at clinical score of 1.0, clinical scoring; assay type: in vivo, C57BL/6J mice
Procedure: Active EAE was induced in 8-12 wk-old female C57BL/6J mice that had been allowed to acclimatize to the animal facility for at least 1 wk. MOG35-55 peptide dissolved in PBS at a concentration of 2 mg/mL was mixed 1:1 with complete Freund's adjuvant to make an emulsion. On day 0, mice were immunized by injecting 50 μL of the emulsion s.c. into each of two sites on the lateral abdomen. In addition, on day 0 and again on day 2, mice were injected intraperitoneally with 250 ng pertussis toxin. Mice were weighed and scored beginning on day 7 post-immunization. Scoring was performed in a blinded manner according to the following scale:
Bryo-1 was prepared by initially dissolving in 100% ethanol and then further diluting to 20% ethanol and 1% DMSO in PBS. The final concentration of bryo-1 was […] Mice were treated by i.p. injection of […] bryo-1 or an equal volume of vehicle control (20% ethanol and 1% DMSO in PBS) 3 d per week (Monday, Wednesday, Friday).
In a second set of experiments, mice were randomized and treatment was begun when the mice reached a clinical score of 1.0 (corresponding to tail paralysis). In this paradigm, mice received their first treatment on the day they reached a score of 1.0, and subsequently were returned to a 3 d/week schedule in sync with the other animals.
The effects of bryo-1 in two distinct therapeutic paradigms were analyzed. In both paradigms, treatments began after the onset of EAE, but the start of the treatments occurred at two different stages of the disease. In the first set of experiments, mice were randomized and treatment was initiated at the first clinical sign of motor weakness, corresponding to tail paralysis (FIG. 2A).

[4] = system: naive CD4+ lymphocytes; assay: Naive CD4+ T cells stimulated with α-CD3/CD28 antibodies, flow cytometry; assay type: cell-based, C57BL/6J mice
Procedure: For surface marker and intracellular cytokine staining of T cells, the cells were first restimulated with a cell stimulation mixture with protein transport inhibitors (eBioscience, catalog #00-4975-03) for 4 h in cRPMI at 37° C. They then underwent live/dead and surface marker staining as earlier. For intracellular cytokine staining, cells were permeabilized and fixed using either IC Fixation buffer for cytokine analysis (eBioscience, 00-8222-49) or FoxP3 fixation/permeabilization buffer for transcription factor analysis (eBioscience, 00-5521-00) after manufacturer recommended protocol and incubated with specific conjugated antibodies for the specified proteins in permeabilization buffer for 1 h.
Spleens were harvested from 6-10-wk-old female C57BL/6J mice, and single-cell suspensions were generated in FACS buffer by disrupting spleens with the plunger of a syringe over a 70-μm nylon cell strainer (BD Falcon), pelleting cells by centrifugation (500×g for 8 min), and resuspending in fresh FACS buffer. Naive CD4^+ cells were then isolated by negative selection using an isolation kit from STEMCELL Technologies (catalog #19765).
Tissue culture plates were coated with α-CD3 antibody (BD Biosciences) by incubating them with 0.25-1.0 m/mL of antibody diluted in sterile PBS overnight at 4° C. or for 2-4 h at 37° C. The antibody solution was then removed, plates were washed once with sterile PBS, and naive CD4^+ T cells were seeded along with 0.25-1.0 m/mL α-CD28 antibody (BD Biosciences) in the presence or absence of the indicated doses of bryo-1. The cells were cultured for 3 d and then analyzed by flow cytometry.

[5] = system: bone marrow-derived dendritic cells (BMDCs); assay: BMDC CD40 and CD86 expression by flow cytometry; assay type: cell-based, C57BL/6J mice
Procedure: All staining procedures were performed in the dark at room temperature. For analysis of surface marker expression on bone marrow-derived DCs, cells were first stained with LIVE/DEAD aqua (Life Technologies, L-34966) for 30 min at room temperature in PBS. Fc receptors were blocked with anti-CD16/CD32 (Biolegend, 101320) for the final 10 min of staining. The cells were then washed and stained with specific conjugated antibodies for the specified surface markers in FACS buffer (PBS supplemented with 2% FBS and 1 mM EDTA) for 30 min.
Cells were analyzed by flow cytometry using a MACSQuant flow cytometer (Miltenyi Biotec). Flow data analysis was performed in FlowJo (FlowJo) or FlowLogic (Inivai).
BMDCs were generated as described in Lutz, “An advanced culture method for generating large quantities of highly pure dendritic cells from mouse bone marrow,” 1999, J. Immunol. Methods 223:77-92, with minor modifications. Briefly, femurs were removed from 6-10-wk-old female C57BL/6J mice, cut on both ends, and marrow flushed with PBS. Bone marrow cells were then pelleted by centrifugation (500×g for 8 min), resuspended in red blood cell lysis buffer (Sigma) for 1 min, and quenched with excess PBS. After another centrifugation, cells were resuspended in complete RPMI (cRPMI) media consisting of RPMI-1640 with GlutaMAX™ supplement (Thermo Fisher Scientific) supplemented with 10% FBS, penicillin-streptomycin (Gibco), and 50 μM 2-mercaptoethanol (Sigma). On day 0, ˜2×10^6 cells were then seeded per 100-mm plate in 10 mL media containing 20 ng/mL rmGM-CSF (Peprotech). On day 3, an additional 10 mL fresh cRPMI media containing 20 ng/mL rmGM-CSF was added to each plate. On day 6, half the culture supernatant from each plate was removed and centrifuged, and the pelleted cells resuspended in 10 mL fresh cRPMI with 20 ng/mL rmGM-CSF and added back to the plates. On day 8, all nonadherent cells (representing the BMDC fraction) were collected, pelleted by centrifugation, resuspended in fresh cRPMI media with 20 ng/mL rmGM-CSF, and plated into 24-well dishes. These BMDCs were then treated overnight with or without LPS 100 ng/mL plus the indicated doses of bryo-1. The following day (day 9), these cells were then assayed by flow cytometry or cytokine ELISA.

[6] = 200 nM, cells stimulated with 0.25 μg/mL of α-CD3 and α-CD28 antibodies, 3 d

Question: `CCC/C=C/C=C/C(=O)OC1/C(=C/C(=O)OC)CC2CC(C(C)O)OC(=O)CC(O)CC3CC(OC(C)=O)C(C)(C)C(O)(CC4C/C(=C/C(=O)OC)CC(/C=C/C(C)(C)C1(O)O2)O4)O3` (stereo not shown) [bryo-1, Bryostatin-1] was tested. Which “rate of oligodendrogenesis (MBP staining)” value [1] did it give?
Answer: appears to have increased the rate of oligodendrogenesis

Question: What about the “expression of the oligodendrocyte marker 04” value [2] of the same compound?
Answer: increased expression

Question: And the “motor deficits and subsequent course of EAE” value ([3]; 30 μg/kg i.p. 3 d per week, started at first clinical sign (tail paralysis, score 1.0))?
Answer: substantially attenuated

Question: And the “peak clinical score vs vehicle-treated mice” value ([3]; treatment started at score 1.0)?
Answer: lower peak clinical score

Question: What about the “recovery vs vehicle-treated mice” value ([3]; treatment started at score 1.0) of the same compound?
Answer: faster recovery

Question: And the “expression of regulatory T-cell marker FoxP3” value [4, 6]?
Answer: increased expression

Question: What about the “up-regulation of CD44” value [4, 6] of the same compound?
Answer: inhibited up-regulation

Question: What about the “up-regulation of IFNγ” value [4, 6] of the same compound?
Answer: inhibited up-regulation

Question: And the “effects on CD44, IFNγ and FoxP3 with stronger T-cell stimulation” value ([4]; of α-CD3/CD28)?
Answer: these effects were lost

Question: What about the “CD86 expression in LPS-stimulated BMDCs” value ([5]; LPS 100 ng/mL) of the same compound?
Answer: no effect

Question: And the “LPS-induced up-regulation of CD40” value ([5]; LPS 100 ng/mL, bryo-1 at either 20 or 200 nM)?
Answer: abrogated

Question: What about the CD40 expression ([5]; absence of LPS, overnight) of the same compound?
Answer: no significant effect

Question: And the CD86 expression ([5]; absence of LPS, overnight)?
Answer: up-regulates CD86
